Source: paper PMC3838859 (Biochemistry, 2013)

Legend:
[1] = target: PhnI (C-P lyase nucleosidase) (Escherichia coli, UniProt P16687); assay type: biochemical
[2] = tested on: Nc1ncnc2c1ncn2[C@@H]1O[C@H](COP(=O)(O)OP(=O)(O)OP(=O)(O)O)[C@@H](O)[C@H]1O; experiment: steady-state kinetics of the nucleosidase reaction; assay type: biochemical, Escherichia coli; conditions: Mg2+

Sequence of PhnI (C-P lyase nucleosidase) (P16687 whole entry): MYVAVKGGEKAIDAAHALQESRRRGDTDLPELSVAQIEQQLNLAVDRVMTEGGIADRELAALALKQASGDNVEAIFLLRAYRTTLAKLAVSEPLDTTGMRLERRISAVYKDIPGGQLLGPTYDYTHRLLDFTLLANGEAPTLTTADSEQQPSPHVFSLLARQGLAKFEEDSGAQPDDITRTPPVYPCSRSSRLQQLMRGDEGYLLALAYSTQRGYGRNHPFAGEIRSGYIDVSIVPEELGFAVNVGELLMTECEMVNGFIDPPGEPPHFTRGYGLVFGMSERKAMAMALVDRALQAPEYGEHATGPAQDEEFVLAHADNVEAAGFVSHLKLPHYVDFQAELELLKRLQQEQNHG

Kd [1] [nM] | Molecule | Km [2] [µM]
20 ± 4 | Nc1ncnc2c([C@@H]3N[C@H](COP(=O)(O)OP(=O)(O)OP(=O)(O)O)[C@@H](O)[C@H]3O)c[nH]c12 [ImmA-TP, Immucillin-A triphosphate] | –
– | PhnI (C-P lyase nucleosidase) (Escherichia coli K-12) | 95 ± 12
